From US11020380B2, “Therapeutic compounds” (CELGENE QUANTICEL RESEARCH, INC., priority 2017, dated 2021) come the findings set out here.

Like-named read-outs stand apart in the source and are kept apart here. Bounds are passed on as bounds.

Common to all, as to type: binding
The target of assay [1] is CBP (Homo sapiens, UniProt Q92793). Nature of the assay: In vitro CBP inhibition (AlphaScreen, biotinylated H4-tetraacetyl peptide). The protocol: (§1) The CBP-inhibitory activity of the compounds described herein was determined by calculating the IC50. More specifically, CBP inhibitor activity was assayed as follows: CBP was cloned and expressed in E. coli as His-tag protein and purified by Nickel affinity and gel-filtration chromatography. […] CBP binding and inhibition is assessed by monitoring the interaction of biotinylated H4-tetraacetyl peptide (AnaSpec, H4K5/8/12/16(Ac), biotin-labeled) with the target using the AlphaScreen technology (Perkin Elmer). In a 384-well ProxiPlate CBP (50 nM final) was combined with peptide (20 nM final) in 50 mM HEPES (pH 7.3), 10 mM NaCl, 0.25 mM TCEP, 0.1% (w/v) BSA, and 0.005% (w/v) Brij-35 either in the presence of DMSO (final 0.4% DMSO) or compound dilution series in DMSO. After 20 min incubation at room temp, Alpha-streptavidin donor beads and Nickel Chelate acceptor beads were added to a final concentration of 5 μg/mL.
(§2) The ability of the compounds disclosed herein to inhibit CBP activity was quantified and the respective IC50 value determined.
(In general: Alpha assays give light when donor and acceptor beads are brought close together.)

In another assay the target is BRD4 (Homo sapiens (Human), UniProt O60885). Nature of the assay: In vitro enzyme inhibition assay - BRD4 inhibition. The settings on record: BRD4 BD1.
Assay [2] concerns CBP. In words: In vitro CBP inhibition (AlphaScreen, biotinylated H4-tetraacetyl peptide). To be noted: selectivity CBP vs BRD4. The protocol: as §1, §2

Chain of CBP (Homo sapiens, UniProt Q92793) (Q92793 2-2442 limits assumed): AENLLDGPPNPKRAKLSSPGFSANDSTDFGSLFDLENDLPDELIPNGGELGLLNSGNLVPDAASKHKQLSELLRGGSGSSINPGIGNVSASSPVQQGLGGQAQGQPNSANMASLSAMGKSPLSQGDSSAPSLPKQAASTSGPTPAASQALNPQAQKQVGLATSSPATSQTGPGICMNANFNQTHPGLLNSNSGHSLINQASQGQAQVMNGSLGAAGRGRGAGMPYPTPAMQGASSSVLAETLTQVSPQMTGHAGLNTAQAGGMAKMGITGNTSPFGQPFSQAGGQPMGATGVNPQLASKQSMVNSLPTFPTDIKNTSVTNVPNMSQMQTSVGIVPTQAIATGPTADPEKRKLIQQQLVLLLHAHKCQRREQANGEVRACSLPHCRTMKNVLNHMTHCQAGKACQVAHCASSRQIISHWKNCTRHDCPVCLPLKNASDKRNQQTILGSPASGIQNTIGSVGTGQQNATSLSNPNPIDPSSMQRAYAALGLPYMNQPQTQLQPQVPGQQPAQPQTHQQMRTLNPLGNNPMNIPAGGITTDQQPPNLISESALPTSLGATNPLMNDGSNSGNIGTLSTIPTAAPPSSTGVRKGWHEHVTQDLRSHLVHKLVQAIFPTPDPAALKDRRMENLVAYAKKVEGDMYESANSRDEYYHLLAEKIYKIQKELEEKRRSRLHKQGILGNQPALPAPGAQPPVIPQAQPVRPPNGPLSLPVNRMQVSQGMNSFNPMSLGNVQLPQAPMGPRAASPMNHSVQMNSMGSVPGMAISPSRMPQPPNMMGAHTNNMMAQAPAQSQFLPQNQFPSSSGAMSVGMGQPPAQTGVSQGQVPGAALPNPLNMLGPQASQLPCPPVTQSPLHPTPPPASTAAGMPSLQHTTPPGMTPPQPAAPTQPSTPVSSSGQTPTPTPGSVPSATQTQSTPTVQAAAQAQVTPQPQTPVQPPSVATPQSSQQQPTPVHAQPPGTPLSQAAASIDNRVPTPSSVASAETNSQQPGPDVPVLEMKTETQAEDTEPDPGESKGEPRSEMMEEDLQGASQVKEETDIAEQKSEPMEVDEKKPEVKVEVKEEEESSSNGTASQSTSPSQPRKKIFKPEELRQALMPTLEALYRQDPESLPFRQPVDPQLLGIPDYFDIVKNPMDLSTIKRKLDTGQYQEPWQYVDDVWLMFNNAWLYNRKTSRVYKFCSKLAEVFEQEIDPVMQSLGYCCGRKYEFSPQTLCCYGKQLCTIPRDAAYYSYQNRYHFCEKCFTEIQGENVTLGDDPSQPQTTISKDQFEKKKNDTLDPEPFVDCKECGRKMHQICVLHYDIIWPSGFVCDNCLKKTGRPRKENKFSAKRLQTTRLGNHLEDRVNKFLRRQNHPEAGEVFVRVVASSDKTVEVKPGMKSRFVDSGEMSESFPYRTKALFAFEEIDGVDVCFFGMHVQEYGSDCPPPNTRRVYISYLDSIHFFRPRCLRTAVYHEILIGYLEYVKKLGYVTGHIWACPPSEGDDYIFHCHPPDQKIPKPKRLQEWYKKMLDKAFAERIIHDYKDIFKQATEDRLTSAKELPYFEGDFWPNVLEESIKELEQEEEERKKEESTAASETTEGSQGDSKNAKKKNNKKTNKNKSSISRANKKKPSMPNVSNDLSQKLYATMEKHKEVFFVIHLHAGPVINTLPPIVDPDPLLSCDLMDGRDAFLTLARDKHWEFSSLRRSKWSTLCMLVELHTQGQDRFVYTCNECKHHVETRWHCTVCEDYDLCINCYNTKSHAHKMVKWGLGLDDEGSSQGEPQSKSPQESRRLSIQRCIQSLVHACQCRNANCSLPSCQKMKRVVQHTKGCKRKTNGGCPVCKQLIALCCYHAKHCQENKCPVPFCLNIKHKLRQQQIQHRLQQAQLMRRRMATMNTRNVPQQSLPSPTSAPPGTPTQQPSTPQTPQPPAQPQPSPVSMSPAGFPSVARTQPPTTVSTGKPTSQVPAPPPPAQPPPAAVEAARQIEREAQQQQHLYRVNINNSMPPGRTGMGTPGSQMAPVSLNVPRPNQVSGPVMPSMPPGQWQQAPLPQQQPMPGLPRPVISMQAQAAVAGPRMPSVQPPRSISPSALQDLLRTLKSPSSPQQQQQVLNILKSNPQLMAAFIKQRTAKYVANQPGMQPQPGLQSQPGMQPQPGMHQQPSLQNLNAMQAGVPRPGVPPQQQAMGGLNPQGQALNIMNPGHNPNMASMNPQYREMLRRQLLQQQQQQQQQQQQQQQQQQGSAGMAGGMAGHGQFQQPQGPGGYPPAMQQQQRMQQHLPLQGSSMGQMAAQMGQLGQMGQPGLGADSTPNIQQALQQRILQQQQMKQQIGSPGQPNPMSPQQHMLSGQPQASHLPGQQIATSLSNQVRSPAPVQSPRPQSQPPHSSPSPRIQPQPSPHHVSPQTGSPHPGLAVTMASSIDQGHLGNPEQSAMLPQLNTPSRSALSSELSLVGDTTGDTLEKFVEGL

A word on the IC50: it is the concentration at which inhibition is half-maximal. For “1-methyl-5-(1-(1-phenylethyl)-1H- pyrazol-4-yl)-4-(pyrrolidin-1-yl) pyridin-2(1H)-one [Example 41]”, the IC50 is less than 500 nM at CBP [1] (read-out: CBP IC50), less than 500 nM on CBP [1] (read-out: CRREBBP IC50) and 500 to 5000 nM against BRD4. With `CN(C)CCCOc1ccc(-c2cc(=O)n(C)cc2-c2cnn(-c3cccc(Cl)c3C#N)c2)cn1` [Example 356, 2-chloro-6-(4-(6-(3-(dimethylamino)propoxy)-1′-methyl-6′-oxo-1′,6′-dihydro-[3,4′-bipyridin]-3′-yl)-1H-pyrazol-1-yl)benzonitrile], the half-maximal inhibitory concentration (IC50) on CBP [1] (read-out: CBP IC50) was less than 500 nM. In the case of `CNC(=O)[C@@H]1CCN(c2cc(=O)n(C)cc2-c2cnn(Cc3ccccc3)c2)C1` [Example 88], the IC50 on CBP [1] (read-out: CBP IC50) is less than 500 nM. As to `CCOc1cc(=O)n(C)cc1-c1cnn(C(C)c2ccccc2)c1` (stereo not shown) [Example 39, 4-ethoxy-1-methyl-5-(1-(1-phenylethyl)-1H-pyrazol-4-yl) pyridin-2(1H)-one], the IC50 on CBP [1] (read-out: CBP IC50) was less than 500 nM. As to `Cn1cc(-c2cnn(Cc3ccccc3)c2)c(-n2cccc2)cc1=O` [5-(1-benzyl-1H-pyrazol-4-yl)-1-methyl-4-(1H-pyrrol-1-yl)pyridin-2(1H)-one], in the assay with CBP [2], the “IC50 for CBP compared with IC50 for BRD4” value is on record as “lower IC50 for CBP than for BRD4”.
